The target in one series is Nav1.8 ion channel (Homo sapiens (Human), UniProt Q9Y5Y9). The series can be described thus: Inhibitory activity on Nav1.8 ion channel, whole-cell patch-clamp on HEK293/Nav1.8. Format: cell-based. Particulars: HEK293/Nav1.8, whole-cell patch clamp, holding -80 mV, 1 μM TTX. Here is the method:
Reagents were purchased from Sigma (St. Louis, MO) except NaOH and KOH for acid-base titration. The final concentrations of the test compounds were all prepared on the day of the test and then dissolved in an extracellular fluid. The extracellular fluid (mM) was NaCl, 137; KCl, 4; CaCl2), 1.8; MgCl2, 1; HEPES, 10; glucose 10; and pH 7.4 (NaOH titration). All test and control compound solutions contained 1 μM TTX. The intracellular fluid (mM) was: aspartic acid, 140; magnesium chloride, 2; ethylene glycol tetraacetic acid (EGTA), 11; and N-2-hydroxyethylpiperazine-N′-2-ethanesulfonic acid (HEPES), 10. The pH was adjusted to 7.4 with cesium hydroxide.
The test compounds were dissolved in dimethylsulfoxide (DMSO) at a concentration of 9 mM. On the day of the test, the compounds were then dissolved in the extracellular fluid and prepared into the required concentration.
The cells were transferred to a perfusion chamber and perfusion was carried out using the extracellular fluid. The intracellular fluid was thawed on the day of the experiment. The electrodes were produced by pulling with PC-10 (Narishige, Japan). Whole-cell patch-clamp recording was carried out. Noise was filtered at one fifth of the sampling frequency. The intracellular fluid with ¼ length of the electrode tube was added into the electrode, and the electrode was installed on a probe. The required Protocol was set, the interface was adjusted to Membrane test, and Stage was adjusted to Bath. A positive pressure was applied in the electrode. The tip of the electrode was contacted with the cell. The three-way valve of the air extractor was adjusted to a three-way state. A negative pressure was then applied to the electrode, so that the electrode and the cell formed a high-resistance seal. Stage was adjusted to Patch, and leak was controlled within −200 pA. A negative pressure was successively applied, so that cell membranes were broken, and a current path was formed. Perfusion was carried out by opening the suction filtration device and the extracellular fluid valve. The cell current was observed, and administration was started when the cell current was stable (at least 3 sweep current curves were overlapped). Administration was performed from low concentration to high concentration. The administration time of each concentration was not less than 2 min, and when the current was stable, the concentration was changed for administration.
For administration of the test samples, perfusion was carried out using a perfusion system utilizing the self gravity. […] During the period, the CV % of all peak current amplitudes should be less than 10% to exclude up and down fluctuations of the initial current. The average of the peak current amplitudes recorded for the last 10 times during the initial recording served as the current peak of the negative control. After the initial current was stable, the test samples were dosed starting from a low concentration until the 10 recorded peak currents were again stable or the peak currents were “constant” after and before administration after continuous administration for 5 min. We defined the following two cases as “stable” or “constant”: 1) if the absolute average of the peak current for 10 consecutive scans exceeded 200 pA and the CV value was less than 10%, 2) or the average of the peak current for 10 consecutive scans was between 200 pA and 50 pA and the CV value was less than 30%. The next detection of higher concentration was then given.
The average of the peak current of the last 10 scans of each concentration was taken as the peak current for that concentration for data analysis. If the stable state was not reached within 5 min, the peak current average of the last 10 scans at that time was used for data analysis as the peak current for that concentration. At the same time, the cells were discarded and no longer used for detection of higher concentration. At least two cells were tested per concentration of the compounds. […]

The nature of series [1]: Pharmacokinetic assay in mice. Format: in vivo. The settings on record: male, ICR, mouse, plasma, oral intragastric administration, 10 mg/kg. How it is done:
Pharmacokinetic assay in mice was performed, wherein the mice used were 3 male ICR mice and fasted overnight. The mice were orally intragastrically dosed with the medicament (10 mg/kg). Blood was collected before administration and at 15 min, 30 min and 1 h, 2 h, 4 h, 6 h, 8 h, and 24 h after administration. Blood samples were centrifuged at 8000 rpm for 6 min at 4° C., and plasma was collected and stored at −20° C. The plasma at each time point was taken, and 3-5 times its amount of an acetonitrile solution containing an internal standard was added for mixing. The mixture was vortexed for 1 min and then centrifuged at 13000 rpm at 4° C. for 10 min. The supernatant was taken, and 3 times its amount of water was added for mixing. A proper amount of the resulting mixture was taken for LC-MS/MS analysis. The major pharmacokinetic parameters were analyzed using a non-compartmental model in the WinNonlin 7.0 software.

Series [2] has as its system spinal nerve-ligated rats. The series is described as follows: Spinal nerve ligation neuropathic pain model in rats (Von-Frey mechanical pain threshold). The format is in vivo, male SD rat. The settings on record: SNL rats. An excerpt: A male SD rat weighing 180-220 g was placed on an operating table in a prone position after anesthesia. An incision was made along the spinal column near the hip bone of the animal, and the fascia and muscle were separated. The L5 transverse process was carefully snapped off with a tweezer. The L5 nerve was separated with a glass needle, and the L5 nerve was ligated with 5-0 ligature. The muscle and the skin were sutured and disinfected with iodophor. After 14 days of modeling, the animals were divided into different groups, 10 animals each group. Different compounds were separately orally administered intragastrically. Mechanical pain thresholds of the animals were detected with Von-Frey fiber filaments at different time points after administration. The specific administration dose and detection time are detailed in Table 3 below.
The mechanical pain threshold detection method: The pelma of the hind limb to be tested of the test animal was continuously stimulated using the Von-Frey fiber filament to bend the fiber filament, and the foot shrinking reaction of the animal was observed. The tested animals were stimulated one by one according to the sequence of the gram number of the fiber filaments from small to large, and each gram number of the fiber filament was continuously used for stimulation for 5 times. If less than 3 positive reactions were present, the procedure described above was repeated using a larger grade of fiber filament, and if 3 or more positive reactions were present for the first time in the test, the fiber filament was the pain threshold for that animal (3 tests per animal for the average). Fiber filament gram number: 0.6, 1.0, 1.4, 2.0, 4.0, 6.0, 8.0, 10.0, and 15.0; the cut value was 15.0 g.

Structures are written as SMILES.

The IC50 is the concentration at which inhibition is half-maximal. Lower therefore signals greater potency in that assay. The term AUC(0-t) denotes the area under the concentration-time curve up to a stated or last time point. Read a low AUC(0-t) as low exposure. The term Cmax denotes the highest concentration seen after dosing. A word on the Tmax: it is the time at which the peak concentration occurs. In general, half-life refers to the time needed for the level to fall by half in the phase considered. A high value points to slow loss.

`O=C(Nc1cnc[n+]([O-])c1)c1cc(Cl)c(C(F)(F)F)cc1Oc1ccc(OC(F)(F)F)cc1` [Compound I-2, 5-(5-Chloro-2-(4-(trifluoromethoxy)phenoxy)-4-(trifluoromethyl)benzamido)pyrimidine-1-oxide]: the IC50 at Nav1.8 ion channel is 11 nM.
For the compound `O=C(Nc1ccc[n+]([O-])c1)c1c(Oc2ccc(F)c3c2OC(F)(F)O3)cc(C(F)(F)F)c(Cl)c1F` [Compound I-11, 3-(3-Chloro-2-fluoro-6-((2,2,7-trifluorobenzo[d][1,3]dioxol-4-yl)oxy)-4-trifluoromethyl-benzamido)pyridine 1-oxide], in series [1], the AUC(0-t) stood at 9070 ng·h/mL, the Cmax turned out to be 2240 ng/mL, the Tmax turned out to be 1 h and the half-life is 131 min. Further, the “Mechanical pain threshold (Mean ± SD), base value before modeling” value in series [2] (100 mpk group, baseline before modeling) is 13.0 ± 2.8 g. In series [2] (100 mpk oral intragastric, 3 h), the “Mechanical pain threshold (Mean ± SD), 3 h after administration” value worked out at 13.6 ± 2.0 g. Moreover, the “Mechanical pain threshold (Mean ± SD), 6 h after administration” value in series [2] (100 mpk oral intragastric, 6 h) was 12.1 ± 2.5 g. Besides, half-maximal inhibition at Nav1.8 ion channel (IC50) required 0.64 nM.
For the compound `O=C(Nc1ccc[n+]([O-])c1)c1cc(Cl)c(C(F)(F)F)cc1Oc1ccc(SC(F)(F)F)cc1` [Compound I-15], in series [1], the AUC(0-t) turned out to be 539000 ng·h/mL, the Cmax worked out at 30000 ng/mL, the Tmax amounted to 8 h and the half-life is 2040 min.
On to `COc1cc(OC(F)(F)F)ccc1Oc1cc(Cl)c(Cl)cc1C(=O)Nc1cnc[n+]([O-])c1` [Compound I-18, 5-(4,5-dichloro-2-(2-methoxy-4-(trifluoromethoxy)phenoxy)benzamido)pyrimidine 1-oxide], for which, in series [1], the AUC(0-t) was 3340 ng·h/mL, the Cmax came out at 1390 ng/mL, the Tmax worked out at 0.5 h and the half-life is 73.2 min. At Nav1.8 ion channel, inhibition was half-maximal at 2.4 nM (IC50).
The matching figures for `O=C(Nc1cnc[n+]([O-])c1)c1c(Oc2ccc(OC(F)(F)F)cc2)cc(Cl)c(Cl)c1F` [Compound I-19, 5-(3,4-Dichloro-2-fluoro-6-(4-(trifluoromethoxy)phenoxy)benzamido)pyrimidine 1-oxide]: 19200 ng·h/mL, 8880 ng/mL, 0.5 h, 120 min and 0.98 nM.
Consider `O=C(Nc1cnc[n+]([O-])c1)c1c(Oc2ccc(OC(F)(F)F)cc2)ccc(C(F)(F)F)c1F` [Compound I-20, 5-(2-fluoro-6-(4-(trifluoromethoxy)phenoxy)-3-(trifluoromethyl)benzamido)pyrimidine 1-oxide], for which, in series [1], the AUC(0-t) was found to be 96200 ng·h/mL, the Cmax came out at 8010 ng/mL, the Tmax came out at 4 h and the half-life was 172 min.
In the case of `[2H]C([2H])([2H])Oc1cc(F)ccc1Oc1cc(Cl)c(Cl)cc1C(=O)Nc1cnc[n+]([O-])c1` [Compound I-21, 5-(4,5-dichloro-2-(4-fluoro-2-(trideuteromethoxy)phenoxy)benzamido)pyrimidine 1-oxide], in series [1], the AUC(0-t) was found to be 2490 ng·h/mL, the Cmax came to 1400 ng/mL, the Tmax was found to be 0.5 h and the half-life is 79.2 min.
As to `O=C(Nc1ccc[n+]([O-])c1)c1cc(Cl)c(Cl)cc1Oc1ccc(F)c2c1OC(F)(F)O2` [Compound I-22, 3-(4,5-Dichloro-2-((2,2,7-trifluorobenzo[d][1,3]dioxol-4-yl)oxy)benzamido)-pyridine 1-oxide], in series [1], the AUC(0-t) came out at 12700 ng·h/mL, the Cmax is 3090 ng/mL, the Tmax was determined as 1 h and the half-life was 173 min. At Nav1.8 ion channel, this compound came in with an IC50 of 8.15 nM.
For the compound `O=C(Nc1ccc[n+]([O-])c1)c1cc(Cl)c(C(F)(F)F)cc1Oc1ccc(F)c2c1OC(F)(F)O2` [Compound I-23, 3-(5-chloro-2-((2,2,7-trifluorobenzo[d][1,3]dioxol-4-yl)oxy)-4-(trifluoromethyl)benzamido)pyridine 1-oxide], in series [1], the AUC(0-t) worked out at 37900 ng·h/mL, the peak level (Cmax) was 3450 ng/mL, the Tmax is 1 h and the half-life was 152 min. In addition, on Nav1.8 ion channel, the IC50 was 2.9 nM.
As for `[2H]C([2H])([2H])Oc1cc(OC(F)(F)F)ccc1Oc1cc(Cl)c(Cl)cc1C(=O)Nc1cnc[n+]([O-])c1` [Compound I-24, 5-(4,5-dichloro-2-(2-(methoxy-d3)-4-(trifluoromethoxy)phenoxy)benzamido)pyrimidine 1-oxide], in series [1], the AUC(0-t) turned out to be 4560 ng·h/mL, the maximum concentration (Cmax) stood at 1870 ng/mL, the Tmax was determined as 0.5 h and the half-life is 107 min. At Nav1.8 ion channel, this compound yielded an IC50 of 2.2 nM.
In the case of `O=C(Nc1cnc[n+]([O-])c1)c1c(Oc2ccc(OC(F)F)cc2)cc(C(F)(F)F)c(Cl)c1F` [Compound I-25, 5-(3-Chloro-6-(4-(difluoromethoxy)phenoxy)-2-fluoro-4-(trifluoromethyl)benzamido)pyrimidine 1-oxide], the IC50 against Nav1.8 ion channel turned out to be 2.9 nM.
For `[2H]C([2H])([2H])Oc1cc(F)c(F)cc1Oc1cc(C(F)(F)F)c(Cl)c(F)c1C(=O)Nc1cnc[n+]([O-])c1` [Compound I-28, 5-(3-chloro-6-(4,5-difluoro-2-(methoxy-d3)phenoxy)-2-fluoro-4-(trifluoromethyl)benzamido)pyrimidine 1-oxide], 1.3 nM corresponded to half-maximal inhibition against Nav1.8 ion channel (IC50).
Still for that read-out and setting: to `Cc1cc(F)ccc1Oc1cc(C(F)(F)F)c(Cl)cc1C(=O)Nc1cnc[n+]([O-])c1` [Compound I-31, 5-(5-chloro-2-(4-fluoro-2-methylphenoxy)-4-(trifluoromethyl)benzamido)pyrimidine 1-oxide] belongs 9.75 nM; to `O=C(Nc1ccc[n+]([O-])c1)c1c(Oc2ccc(F)c3c2OC(F)(F)O3)cc(Cl)c(Cl)c1F` [Compound I-32, 3-(3,4-Dichloro-2-fluoro-6-((2,2,7-trifluorobenzo[d][1,3]dioxol-4-yl)oxy)benzamido)pyridine-1-oxide], 0.71 nM; to `Cc1cc(F)ccc1Oc1cc(C(F)(F)F)c(Cl)c(F)c1C(=O)Nc1cnc[n+]([O-])c1` [Compound I-34, 5-(3-chloro-2-fluoro-6-(4-fluoro-2-methylphenoxy)-4-(trifluoromethyl)benzamido)pyrimidine 1-oxide], 1.4 nM.
